Holding throughout (type): functional
For assay [1], the species on record is Mus musculus. Briefly: Effective dose to reduce 25% of triglyceride levels in plasma.
The species named for assay [2] is Mus musculus. Briefly: Maximum reduction in blood glucose levels in KKA mice at a dosage of 0.001% in diet.
Assay [3] is filed under the species Mus musculus. Description: Maximum reduction in plasma triglyceride levels in KKA mice at a dosage of 0.005% in diet.
For assay [4], the species on record is Mus musculus. Briefly: (§1) Effective dose to reduce 25% of glucose levels in blood. The settings on record: Mus musculus, Blood.
For assay [5], the species on record is Mus musculus. Description: Maximum reduction in blood glucose levels in KKA mice at a dosage of 0.005% in diet.
For assay [6], the species on record is Mus musculus. Briefly: Maximum reduction in plasma triglyceride levels in KKA mice at a dosage of 0.001% in diet.
The species named for assay [7] is Mus musculus. Briefly: Compound was tested for maximum reduction in plasma triglyceride levels in KKA mice at a dosage of 0.005% in diet.
The species entered for assay [8] is Mus musculus. Briefly: Compound was tested for maximum reduction in blood glucose levels in KKA mice at a dosage of 0.05% in diet.
Assay [9] is filed under the species Mus musculus. Briefly: Compound was tested for maximum reduction in blood glucose levels in KKA mice at a dosage of 0.01% in diet.
For assay [10], the species on record is Mus musculus. Description: Compound was tested for maximum reduction in plasma triglyceride levels in KKA mice at a dosage of 0.05% in diet.
The species named for assay [11] is Mus musculus. Description: Compound was tested for maximum reduction in plasma triglyceride levels in KKA mice at a dosage of 0.01% in diet.
Assay [12] is described as follows: as §1. The settings on record: Mus musculus.

Drawing on ChEMBL document CHEMBL1125480, “Studies on antidiabetic agents. 11. Novel thiazolidinedione derivatives as potent hypoglycemic and hypolipidemic agents” (1992), this text covers ED25 and Reduction for 16 compounds.

`Cc1oc(-c2cccs2)nc1CCOc1ccc(CC2SC(=O)NC2=O)cc1` (stereo unspecified): the ED25 in the assay filed under Mus musculus [1] came to 0.3 mg/kg/day; in the assay listed under Mus musculus [4] it was 0.09 mg/kg/day. For the same compound, the Reduction in the assay listed under Mus musculus [2] amounted to 50%; in the assay filed under Mus musculus [3], 72%; in the assay listed under Mus musculus [5] it was 51%; in the assay listed under Mus musculus [6], 41%.
For the compound `Cc1oc(-c2ccccc2)nc1COc1ccc(CC2SC(=O)NC2=O)cc1` (stereo unspecified), the ED25 in the assay listed under Mus musculus [1] came to 5 mg/kg/day; in the assay filed under Mus musculus [4], 3 mg/kg/day. Besides, the Reduction stood at 23% in the assay filed under Mus musculus [2], 44% in the assay filed under Mus musculus [3], 21% in the assay filed under Mus musculus [5] and 17% in the assay filed under Mus musculus [6].
With `O=C1NC(=O)/C(=C/c2ccc(OCCc3csc(-c4ccccc4)n3)cc2)S1`, the ED25 in the assay listed under Mus musculus [1] is 1.3 mg/kg/day; in the assay filed under Mus musculus [4], 0.6 mg/kg/day. Further, the Reduction stood at 49% in the assay listed under Mus musculus [2], 57% in the assay filed under Mus musculus [3], 57% in the assay filed under Mus musculus [5] and 44% in the assay listed under Mus musculus [6].
Regarding `Cc1oc(-c2ccccc2)nc1C(O)COc1ccc(/C=C2\SC(=O)NC2=O)cc1` (stereo unspecified), the ED25 came to 0.3 mg/kg/day in the assay listed under Mus musculus [1] and 0.9 mg/kg/day in the assay filed under Mus musculus [4]. The Reduction was 36% in the assay filed under Mus musculus [2], 60% in the assay listed under Mus musculus [3], 56% in the assay listed under Mus musculus [5] and 54% in the assay listed under Mus musculus [6].
As to `O=C1NC(=O)C(Cc2ccc(OCc3csc(-c4ccccc4)n3)cc2)S1` (stereo unspecified), the Reduction in the assay listed under Mus musculus [7] was 32%; in the assay listed under Mus musculus [2] it was 11%; in the assay filed under Mus musculus [5], 28%; in the assay listed under Mus musculus [6] it was 3%. In addition, the ED25 in the assay filed under Mus musculus [1] was 8 mg/kg/day; in the assay listed under Mus musculus [4] it was 6 mg/kg/day.
Take `CCc1oc(-c2ccccc2)nc1CCOc1ccc(CC2SC(=O)NC2=O)cc1` (stereo unspecified): the ED25 in the assay listed under Mus musculus [1] is 0.6 mg/kg/day; in the assay filed under Mus musculus [4], 0.3 mg/kg/day. In addition, the Reduction is reported as 49% in the assay listed under Mus musculus [2], 79% in the assay filed under Mus musculus [3], 55% in the assay filed under Mus musculus [5] and 55% in the assay listed under Mus musculus [6].
Consider `Cc1nc(C(O)COc2ccc(CC3SC(=O)NC3=O)cc2)c(C)o1` (stereo unspecified), for which the ED25 in the assay listed under Mus musculus [1] was 0.5 mg/kg/day; in the assay filed under Mus musculus [4], 0.2 mg/kg/day. The Reduction amounted to 55% in the assay filed under Mus musculus [2], 62% in the assay listed under Mus musculus [3], 51% in the assay listed under Mus musculus [5] and 52% in the assay listed under Mus musculus [6].
`O=C1NC(=O)C(Cc2ccc(OCCc3coc(-c4ccccc4)n3)cc2)S1` (stereo unspecified): the Reduction worked out at 58% in the assay listed under Mus musculus [8], 41% in the assay listed under Mus musculus [9], 68% in the assay filed under Mus musculus [10] and 51% in the assay filed under Mus musculus [11]. The ED25 in the assay listed under Mus musculus [1] is 0.5 mg/kg/day; in the assay filed under Mus musculus [4] it was 0.3 mg/kg/day.
As to `CCCc1nc(CCOc2ccc(CC3SC(=O)NC3=O)cc2)co1` (stereo unspecified), the ED25 in the assay filed under Mus musculus [1] and in the assay filed under Mus musculus [4] was 2 mg/kg/day each time. For the same compound, the Reduction in the assay filed under Mus musculus [2] amounted to 29%; in the assay filed under Mus musculus [3], 65%; in the assay listed under Mus musculus [5] it was 52%; in the assay filed under Mus musculus [6], 26%.
Regarding `Cc1oc(-c2ccccc2)nc1C(O)COc1ccc(CC2SC(=O)NC2=O)cc1` (stereo unspecified), the ED25 in the assay listed under Mus musculus [1] worked out at 0.1 mg/kg/day; in the assay listed under Mus musculus [4], 0.05 mg/kg/day. The Reduction in the assay listed under Mus musculus [2] is listed as 54%; in the assay listed under Mus musculus [3], 81%; in the assay filed under Mus musculus [5], 58%; in the assay filed under Mus musculus [6], 62%.
Regarding `O=C1NC(=O)C(Cc2ccc(OCCc3csc(-c4ccccc4)n3)cc2)S1` (stereo unspecified), the ED25 came out at 0.3 mg/kg/day in the assay filed under Mus musculus [1] and 0.5 mg/kg/day in the assay filed under Mus musculus [4]. Besides, the Reduction in the assay filed under Mus musculus [2] stood at 39%; in the assay filed under Mus musculus [3], 63%; in the assay listed under Mus musculus [5], 52%; in the assay listed under Mus musculus [6], 54%.
`COc1ccc(-c2nc(CCOc3ccc(CC4SC(=O)NC4=O)cc3)c(C)o2)cc1` (stereo unspecified): the ED25 in the assay filed under Mus musculus [1] stood at 0.6 mg/kg/day; in the assay listed under Mus musculus [4], 0.3 mg/kg/day. For the same compound, the Reduction in the assay listed under Mus musculus [2] turned out to be 53%; in the assay listed under Mus musculus [3], 72%; in the assay filed under Mus musculus [5], 55%; in the assay listed under Mus musculus [6], 63%.
`Cc1nc(C(O)COc2ccc(/C=C3\SC(=O)NC3=O)cc2)c(C)o1` (stereo unspecified): the ED25 turned out to be 0.8 mg/kg/day in the assay filed under Mus musculus [1] and 2.2 mg/kg/day in the assay listed under Mus musculus [4]. Further, the Reduction came to 26% in the assay filed under Mus musculus [2], 61% in the assay filed under Mus musculus [3], 59% in the assay listed under Mus musculus [5] and 37% in the assay filed under Mus musculus [6].
Regarding `Cc1nc(CCOc2ccc(CC3SC(=O)NC3=O)cc2)c(C)o1` (stereo unspecified), the ED25 in the assay listed under Mus musculus [1] came to 3 mg/kg/day; in the assay filed under Mus musculus [4], 2 mg/kg/day. For the same compound, the Reduction in the assay filed under Mus musculus [2] is 27%; in the assay listed under Mus musculus [3], 56%; in the assay listed under Mus musculus [5] it was 55%; in the assay listed under Mus musculus [6], 10%.
Turning to `O=C1NC(=O)C(Cc2ccc(OCc3coc(-c4ccccc4)n3)cc2)S1` (stereo unspecified), the ED25 in the assay listed under Mus musculus [1] was determined as 4 mg/kg/day; in the assay filed under Mus musculus [4], 3 mg/kg/day. Also, the Reduction in the assay filed under Mus musculus [2] stood at 16%; in the assay listed under Mus musculus [3] it was 51%; in the assay filed under Mus musculus [5], 48%; in the assay filed under Mus musculus [6] it was 12%.
Take `Cc1oc(-c2ccco2)nc1CCOc1ccc(CC2SC(=O)NC2=O)cc1` (stereo unspecified): the ED25 in the assay filed under Mus musculus [1] turned out to be 0.9 mg/kg/day; in assay [12], 0.4 mg/kg/day. For the same compound, the Reduction was found to be 50% in the assay listed under Mus musculus [2], 69% in the assay listed under Mus musculus [3], 50% in the assay filed under Mus musculus [5] and 41% in the assay filed under Mus musculus [6].
